Data from patent US20240352068A1, “VIMENTIN TARGETED PEPTOIDS FOR EARLY DIAGNOSIS AND TREATMENT OF CANCER” (UNIVERSITY OF HOUSTON SYSTEM, priority 2021, published 2024).
Each block holds one molecule with its values, some of them ahead of it. Numbered stars: 1 amine (or outer) side, 2 acyl side, 3 side chain; on linkers, the order of the positions; unused ones are H or OH. Bridge positions count the residues as written; N and C are the ends. Square brackets hold non-standard residues; d marks the D form. Peptide text beside a SMILES is read from it. I, II: the chains in the order shown. X1 = O=C(c1ccccc1)c1cccc(N(CC(=O)[*:2])[*:1])c1; N(4-BzPh)Gly = O=C(O)CNc1ccc(C(=O)c2ccccc2)cc1; Gly(N-piperonyl) = O=C(O)CNCc1ccc2c(c1)OCO2; Nleu = CC(C)CNCC(=O)O; Nlys = NCCCCNCC(=O)O; Nme = COCCNCC(=O)O; Sar = CNCC(=O)O

Tests used:
vimentin [1] = target: T1, vimentin (Homo sapiens, UniProt P08670); assay: ELISA-like binding assay to vimentin
T1 sequence (P08670 whole entry): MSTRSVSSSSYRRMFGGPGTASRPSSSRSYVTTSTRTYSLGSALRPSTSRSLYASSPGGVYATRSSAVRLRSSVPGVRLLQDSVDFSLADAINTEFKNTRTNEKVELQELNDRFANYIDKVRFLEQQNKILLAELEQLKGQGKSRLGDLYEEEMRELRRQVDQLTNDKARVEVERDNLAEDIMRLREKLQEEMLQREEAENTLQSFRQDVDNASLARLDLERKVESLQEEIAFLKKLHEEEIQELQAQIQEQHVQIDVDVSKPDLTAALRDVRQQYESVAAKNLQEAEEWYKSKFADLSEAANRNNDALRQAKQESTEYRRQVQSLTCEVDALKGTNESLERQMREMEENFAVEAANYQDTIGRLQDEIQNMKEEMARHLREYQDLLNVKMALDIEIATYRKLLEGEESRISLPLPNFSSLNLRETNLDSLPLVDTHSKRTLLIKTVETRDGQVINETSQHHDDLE
Procedure: To identify minimum pharmacophore of JM3A (the most important residues directly needed for protein binding), an alanine/sarcosine scan was done.
Next, Applicant compared binding activity between L2 (D-ala) and JM3ABPD1 by employing ELISA-like binding assay in a concentration between 10 nM to 10 μM.

H1299 cells [2] = assay: wound healing (cell migration) assay; type: cell-based; design: inhibition of cell migration: dose or concentration left out as unconfirmed
Procedure: FIGS. 22A-22B provide data related to the characterization of L2 (D-ala), JM3A-BPD1, and JM3A-BP. […] H1299 cells were cultured to form a monolayer in 24-well plate. A scratch was made and wells were treated with L2 (D-ala), JM3A-BPD1. […]
Since vimentin has been identified as an important biomarker of mesenchymal cells during the epithelial-mesenchymal transition (EMT) process. The EMT process can endow epithelial cells with stemness as well as invasion and migration properties. Therefore, Applicant would like to investigate how L2 (D-ala) targeting vimentin can impact cancer stem cells activity. The wound-healing assay indicates the mobility/motility of cells, which is a hallmark measurement of cancer stem cells. The L2 (D-ala), JM3A-BPD1, JM3A-BP, and control compound were used to study the effects on cell migration via wound healing assay. […] Both JM3A-BP monomer and control compounds had no effect on cell migration.

H460 cells = assay: colony formation assay; type: cell-based; settings: for colony formation: 7 days, at 20 μM
Procedure: FIGS. 23A-23B provide additional data related to the characterization of L2 (D-ala), JM3A-BPD1, and JM3A-BP. […] FIG. 23B provides a quantification of the colonies after a 7-day incubation treatment.
Colony formation is a standard assay to assess the activity of cancer stem cells. When cancer cells are seeded in a low number, normal cancer cells die due to the loss of cell-cell communications while cancer stem cells can survive and form colonies in isolation. Applicant performed colony formation assay on H460 cells to study how L2 (D-ala) can affect cancer stem cells activity. The H460 cells were seeded and treated with L2 (D-ala), JM3A-BPD1, JM3A-BP, and control compounds from day 1. After 7 days of incubation, colonies were carefully counted and plotted.

[3] = test system: vimentin expressing cells; assay: magnetic bead pulldown of cells with quantification; type: cell-based, human; settings: HBEC3^p53,KRAS,cMYC vs HBEC3-KT; NAD(P)H, dityrosine, MTS readout
Procedure: JM3A can be utilized as an early cancer biomarker to develop simple diagnostic tools such as reading the cells auto fluorescence markers or quantifying the cells using MTS assay. Applicant performed the pulldown assay using JM3A to HBEC3-KT and HBEC3^p53,KRAS,cMYC cells. The Biotin-JM3A compound was mounted on streptavidin coated magnetic beads and 1 million cells (HBEC3-KT and HBEC3^p53,KRAS,cMYC cells each) were incubated for 1 hour. Next, bound cells were pulled using magnet.
The difference of number of cells pulled down were quantified for NAD (P) H (FIG. 11A) and Dityrosine (FIG. 11B) expression. Also to the pulldown cells MTS reagent was added and number of cells were quantified (FIG. 11C).

[4] = target: Vimentin protein (His-tag) (Homo sapiens, UniProt P08670); assay: on bead protein binding assay; settings: anti-His Alexa 647 detection
Vimentin protein (His-tag), sequence (P08670 whole entry): as above
Procedure: To reconfirm the JM3A-vimentin interaction, an on bead protein binding assay was performed. Vimentin protein (His-tag) was screened with compound JM3A (on tentagel beads) and visualized using a secondary antibody (Anti-His Alexa 647) (FIG. 9A).

[5] = test system: HBEC3^p53,KRAS,cMYC cells; assay: on-bead cell binding, transformed cells; type: cell-based, human; settings: JM3A on tentagel beads, red stained cells, separately and as mixture
Text: (§1) The compound JM3A was resynthesized on tentagel beads and equilibrated with HBEC3^p53,KRAS,cMYC (red stained) cells and HBEC3-KT (green stained) cells separately and also as a mixture.

vimentin [6] = target: T1, vimentin; assay: cross-linking, magnetic-bead pulldown and western blot on cells; type: binding; design: from tissue; host or cells: human early cancer tissue and normal tissue cross-sections; settings: western blot
Procedure: For pulldown assay, the JM3A compound was synthesized with Biotin on C-terminal and benzophenone on its N-terminal (FIG. 7A). The compound was first mounted on streptavidin magnetic beads, followed by incubation of the cells HBEC3^p53,KRAS,cMYC and HBEC3-KT for 1 hour. Bound cells were separated using magnetic beads and cross-linked using UV. The cells were then lysed, and the proteins were separated by electrophoresis and visualized by silver staining (FIG. 7B). The unique band at around 60 kDa in the JM3A-bound sample, which was not present in whole cell lysis of HBEC3-KT cells or in the Control-PC462 compound pulldown, was analyzed by standard proteomics technique.
To reconfirm the JM3A-vimentin interaction, western blot analysis of samples from cross-linking and magnetic-bead pulldown assay with normal cells (HBEC3-KT) and transformed cells (HBEC3^p53,KRAS,cMYC) were performed (FIG. 10A). Pulldown assay was performed on normal and transformed cells using JM3A and control PC462. All the pulldown fractions were run on western-blot and compared with whole-cell lysis of HBEC3-KT and HBEC3^p53,KRAS,cMYC cells.

[7] = target: T2, commercially available vimentin protein (Homo sapiens, UniProt P08670); assay: magnetic-bead pulldown and western blot with commercially available vimentin protein; type: binding; settings: western blot
T2 construct: purchased
T2 sequence (P08670 whole entry): as above
Text: To further confirm of JM3A specificity, the western blot assay was repeated using commercially available vimentin protein (FIG. 10B). […] This JM3A bound band disappeared when this binding was competed (blocked) with 10× free JM3A, and 5× free vimentin antibody. […] The results were further confirmed by running pure protein as reference band and JM3A transformed cells pulldown proteins.

vimentin [8] = target: T1, vimentin; assay: immunohistochemical detection of vimentin in tissues; design: from tissue; host or cells: human early cancer tissue and normal tissue cross-sections; settings: IHC
Procedure: In a more clinically applicable set up, Applicant detected vimentin expression using JM3A in early cancer tissues from human samples using immunohistochemistry (IHC) experiments. Biotin-JM3A was incubated with those tumor tissue cross-sections compared to normal tissues for 1 hour and visualized by streptavidin Q-dots 655 under fluorescent microscope using Long-pass filter (FIG. 11D).

HBEC3-KT cells = assay: on-bead cell binding, normal cells; type: cell-based, human; settings: JM3A on tentagel beads, green stained cells, separately and as mixture
Text: as §1

H460 = assay: MTS assay on H460 cells; type: cell-based; settings: H460, vimentin high expression
Text: (§2) In order to investigate the broader applicability of vimentin targeting in NSCLC cells, Applicant performed the same MTS studies on different lung cancer models with various vimentin expressions. These cell lines included H460 (Carcinoma, large cell lung cancer), H2009 (Adenocarcinoma, Stage 4), H358 (Bronchioalveolar Carcinoma, NSCLC), H2122 (Adenocarcinoma, NSCLC), and normal bronchial epithelial HBEC3KT cells.

H2122 = assay: MTS assay on H2122 cells; type: cell-based; settings: H2122, vimentin low expression
Text: as §2

H2009 = assay: MTS assay on H2009 cells; type: cell-based; settings: H2009, vimentin moderate expression
Text: as §2

H1299 cells [9] = type: cell-based
Procedure: Next, Applicant evaluated the anti-proliferative activity of these peptoid dimers via standard MTS assays on non-small cell lung cancer (NSCLC) H1299 cells, which have high vimentin expression.
After 18 hours, the activity reached the maximum (IC50˜6 μM) (FIG. 21C).

H358 = assay: MTS assay on H358 cells; type: cell-based; settings: H358, vimentin moderate expression
Text: as §2

[10] = test system: normal bronchial epithelial HBEC3KT cells; assay: MTS assay on normal bronchial epithelial cells; type: cell-based, human
Text: as §2

Structure (SMILES): COCCN(CC(=O)NC(CCCCN)C(=O)NC(CCSC)C(N)=O)C(=O)CN(C)C(=O)CN(CC(C)C)C(=O)CN(CCCCN)C(=O)CN(CCCCN)C(=O)CN(C)C(=O)CNc1ccc(C(=O)c2ccccc2)cc1 (stereo not shown) [JM3A-4,8-BP] (H-[N(4-BzPh)Gly][Sar][Nlys][Nlys][Nleu][Sar][Nme]KM-NH2; configuration not given here)
binding to vimentin (in words) (vimentin [1]; comparison of derivatives): highest binding affinity

Structure (SMILES): COCCN(CC(=O)NC(CCCCN)C(=O)NC(CCSC)C(=O)NCCCCC(NC(=O)C(CCSC)NC(=O)C(CCCCN)NC(=O)CN(CCOC)C(=O)CN(Cc1ccc2c(c1)OCO2)C(=O)CN(CC(C)C)C(=O)CN(CCCCN)C(=O)CN(CCCCN)C(=O)CN(CC(C)C)C(=O)CNc1ccc(C(=O)c2ccccc2)cc1)C(N)=O)C(=O)CN(Cc1ccc2c(c1)OCO2)C(=O)CN(CC(C)C)C(=O)CN(CCCCN)C(=O)CN(CCCCN)C(=O)CN(CC(C)C)C(=O)CNc1ccc(C(=O)c2ccccc2)cc1 (stereo not shown) [JM3A-BPD1] (I: H-[N(4-BzPh)Gly][Nleu][Nlys][Nlys][Nleu][Gly(N-piperonyl)][Nme]KMK-NH2 / II: H-[N(4-BzPh)Gly][Nleu][Nlys][Nlys][Nleu][Gly(N-piperonyl)][Nme]KM; amide I:10-II:C; configuration not given here)
inhibition of cell migration (H1299 cells [2]): moderately inhibit | colony formation (H460 cells): some colony disruption

Structure (SMILES): COCCN(CC(=O)N[C@@H](CCCCN)C(=O)N[C@H](C)C(=O)NCC(=O)NCCCC[C@H](NC(=O)CNC(=O)[C@@H](C)NC(=O)[C@H](CCCCN)NC(=O)CN(CCOC)C(=O)CN(Cc1ccc2c(c1)OCO2)C(=O)CN(CC(C)C)C(=O)CN(CCCCN)C(=O)CN(CCCCN)C(=O)CN(CC(C)C)C(=O)CNc1cccc(C(=O)c2ccccc2)c1)C(N)=O)C(=O)CN(Cc1ccc2c(c1)OCO2)C(=O)CN(CC(C)C)C(=O)CN(CCCCN)C(=O)CN(CCCCN)C(=O)CN(CC(C)C)C(=O)CNc1ccc(C(=O)c2ccccc2)cc1 [L2 (D-ala)] (I: H-[X1][Nleu][Nlys][Nlys][Nleu][Gly(N-piperonyl)][Nme]K[dA]GK-NH2 / II: H-[N(4-BzPh)Gly][Nleu][Nlys][Nlys][Nleu][Gly(N-piperonyl)][Nme]K[dA]G; amide I:11-II:C; N-terminus and C-terminus assumed)
anti-proliferation activity (in words) (H460): best activity | anti-proliferation activity (in words) (H2122): lowest activity | anti-proliferation activity (in words) (H2009): medium activity | effect of extension of treatment time on proliferation (H1299 cells [9]; H1299 cells, after 18 hours): no significant impact | anti-proliferation potency (in words) (H1299 cells [9]; H1299 cells, treatment 6 hours): improvement in potency | anti-proliferation activity (in words) (H358): medium activity | anti-proliferation activity (in words) [10]: inactivity | concentration from which cell migration is inhibited (H1299 cells [2]): 3 µM | inhibition of cell migration (H1299 cells [2]): significantly inhibit | concentration from which colony formation is disrupted (H460 cells; 7 days of incubation): 1 µM | colony formation (H460 cells): inhibit all colonies | Kd improvement relative to JM3A-BPD1 (vimentin [1]; 10 nM to 10 μM): approximately 10 times

The next lines start with results.

binding of histidine-tagged vimentin to on-bead compound [4]: showed binding | pulldown of vimentin protein (vimentin [6]; normal cells (HBEC3-KT)): not in normal cells | detection of vimentin overexpression (vimentin [8]; early cancer tissues): present | detection of vimentin overexpression (vimentin [8]; normal tissues): absent
Structure (SMILES): COCCN(CC(=O)NC(CCCCN)C(=O)NC(CCSC)C(N)=O)C(=O)CN(Cc1ccc2c(c1)OCO2)C(=O)CN(CC(C)C)C(=O)CN(CCCCN)C(=O)CN(CCCCN)C(=O)CNCC(C)C (stereo not shown) [JM3A] (H-[Nleu][Nlys][Nlys][Nleu][Gly(N-piperonyl)][Nme]KM-NH2; configuration not given here)
pulldown of vimentin expressing cells [3]: can be pulled down | binding of beads to cells [5]: bound only to red stained cells | pulldown of vimentin protein (vimentin [6]; transformed cells (HBEC3^p53,KRAS,cMYC)): pulldown only with JM3A in transformed cells | interaction with and pulldown of vimentin protein [7]: strong interaction and pulldown of vimentin protein | binding of beads to cells (HBEC3-KT cells): not to green stained cells

IC50 (H1299 cells [9]): ~6 µM
Structure (SMILES): COCCN(CC(=O)N[C@@H](CCCCN)C(=O)N[C@@H](CCSC)C(=O)NCC(=O)NCCCC[C@H](NC(=O)CNC(=O)[C@H](CCSC)NC(=O)[C@H](CCCCN)NC(=O)CN(CCOC)C(=O)CN(Cc1ccc2c(c1)OCO2)C(=O)CN(CC(C)C)C(=O)CN(CCCCN)C(=O)CN(CCCCN)C(=O)CN(CC(C)C)C(=O)CNc1ccc(C(=O)c2ccccc2)cc1)C(N)=O)C(=O)CN(Cc1ccc2c(c1)OCO2)C(=O)CN(CC(C)C)C(=O)CN(CCCCN)C(=O)CN(CCCCN)C(=O)CN(CC(C)C)C(=O)CNc1ccc(C(=O)c2ccccc2)cc1 [L2] (I: H-[N(4-BzPh)Gly][Nleu][Nlys][Nlys][Nleu][Gly(N-piperonyl)][Nme]KMGK-NH2 / II: H-[N(4-BzPh)Gly][Nleu][Nlys][Nlys][Nleu][Gly(N-piperonyl)][Nme]KMG; amide I:11-II:C)
